Strand notation (5' to 3'): a small letter for the sugar, then the base; units joined by * are phosphorothioate-linked, units joined directly phosphodiester-linked; [ ] holds rarer units or linkages, { } end groups; capitals alone tell only the bases. e = 2'-O-(2-methoxyethyl) (MOE); [5mC] = 5-methylcytosine; d = 2'-deoxy (DNA)
System: human PKK mRNA
Experiment: Antisense inhibition of human PKK mRNA in HepaRG cells, 5,000 nM (Example 2)
Format: cell-based
Outline: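 Chimeric MOE gapmers with full phosphorothioate backbones were tested once at 5,000 nM in electroporated HepaRG cells. After about 24 hours, quantitative PCR measured PKK mRNA relative to untreated control cells.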

[1] = HepaRG cells, 5,000 nM antisense oligonucleotide, 5-10-5 gapmers, Table 16
[2] = human PKK mRNA in HepaRG cells, 5-10-5 gapmers, Table 14
[3] = Table 9 experiment, HepaRG cells, 20,000 cells per well, electroporation with 5,000 nM antisense oligonucleotide, approx. 24 hours, PKK mRNA by RT-PCR (RTS3454), relative to untreated control cells
[4] = Table 10 experiment, HepaRG cells, 20,000 cells per well, electroporation with 5,000 nM antisense oligonucleotide, approx. 24 hours, PKK mRNA by RT-PCR (RTS3454), relative to untreated control cells
[5] = HepaRG cells, electroporation, 5,000 nM antisense oligonucleotide, approx. 24 hours, primer probe set RTS3454, relative to untreated control cells, Table 12
[6] = human PKK mRNA, HepaRG cells, 5-10-5 motif oligonucleotides targeting SEQ ID NO: 1 and 10
[7] = human PKK mRNA, HepaRG cells, 5,000 nM antisense oligonucleotide, Table 18

547717 (eA*e[5mC]*eT*e[5mC]*eT*dG*dG*d[5mC]*dA*d[5mC]*dT*dG*dG*dT*d[5mC]*eA*eT*eG*eG*eA; antisense) [compound 547717]
% inhibition [1]: 54%

546880 (eG*eT*eT*eT*e[5mC]*d[5mC]*dT*dA*dT*dA*dA*d[5mC]*dA*dG*dT*eA*eT*e[5mC]*eA*e[5mC]; antisense) [compound 546880]
% inhibition [2]: 41%

547476 (antisense e[5mC]*eA*eT*eT*eT*dG*dT*dT*dA*d[5mC]*d[5mC]*dA*dA*dA*dG*eG*eA*eA*eT*eA) [compound 547476]
% inhibition [3]: 75% | % inhibition [4]: 71%

546426 (eT*e[5mC]*eT*e[5mC]*eT*dG*dG*dT*d[5mC]*dA*dA*dT*d[5mC]*dT*dG*eA*e[5mC]*eT*eA*eG; antisense) [compound 546426]
% inhibition [5]: 49%

547614 (antisense e[5mC]*e[5mC]*eT*eA*eT*dA*dT*d[5mC]*dA*d[5mC]*dT*dG*dT*dA*d[5mC]*e[5mC]*eT*eG*eT*eA) [compound 547614]
% inhibition [2]: 81%

547546 (antisense e[5mC]*eA*eT*eA*e[5mC]*dT*d[5mC]*dG*d[5mC]*d[5mC]*dT*dT*dT*dG*dT*eG*eA*eT*eG*e[5mC]) [compound 547546]
% inhibition [5]: 11%

546863 (eT*eA*eA*e[5mC]*eT*dA*dT*dA*dA*d[5mC]*dA*dA*dT*dA*dT*e[5mC]*eA*e[5mC]*eT*eG; antisense) [compound 546863]
% inhibition [2]: 21%

547547 (antisense eG*e[5mC]*eA*eT*eA*d[5mC]*dT*d[5mC]*dG*d[5mC]*d[5mC]*dT*dT*dT*dG*eT*eG*eA*eT*eG) [compound 547547]
% inhibition [5]: 42%

547635 (eT*eA*eT*e[5mC]*eA*d[5mC]*dT*dG*dT*dA*d[5mC]*dT*dA*dG*dT*eT*eT*eT*e[5mC]*eT; antisense) [compound 547635]
% inhibition [6]: 53%

547715 (eG*eG*eT*e[5mC]*eA*dG*dA*dA*dG*dG*d[5mC]*d[5mC]*dT*d[5mC]*dT*eT*eA*eT*eT*e[5mC]; antisense) [compound 547715]
% inhibition [1]: 21%

548769 (antisense eA*eG*eT*eA*dT*d[5mC]*dA*d[5mC]*dT*dG*dT*d[5mC]*d[5mC]*eT*eA*eT*eA) [compound 548769]
% inhibition [7]: 64%

547356 (eT*eA*eA*eT*eA*dG*dG*d[5mC]*dA*dA*dT*dT*dG*dT*dT*e[5mC]*e[5mC]*eG*eG*eT; antisense) [compound 547356]
% inhibition (HepaRG cells, electroporation with 5,000 nM antisense oligonucleotide, approximately 24 hours, PKK mRNA by RT-PCR (RTS3454), relative to untreated control cells, Table 6 experiment): 83%

548750 (antisense e[5mC]*eT*eG*eT*dA*d[5mC]*dT*dA*dG*dT*dT*dT*d[5mC]*d[5mC]*eT*eA*eT*eA) [compound 548750]
% inhibition [7]: 62%

546926 (eG*e[5mC]*e[5mC]*eA*eT*d[5mC]*d[5mC]*dA*dG*dG*dG*dT*dG*d[5mC]*dT*e[5mC]*eT*e[5mC]*e[5mC]*e[5mC]; antisense) [compound 546926]
% inhibition [1]: 81%

547651 (eT*eG*eT*eA*e[5mC]*d[5mC]*dT*dA*dT*dA*dA*d[5mC]*dA*dG*dT*eA*eT*e[5mC]*eA*e[5mC]; antisense) [compound 547651]
% inhibition [6]: 48%

546444 (e[5mC]*e[5mC]*eA*eG*eA*dA*dT*d[5mC]*dA*dT*dG*d[5mC]*d[5mC]*dT*dT*eG*eT*eG*eG*eG; antisense) [compound 546444]
% inhibition [5]: 61%

547488 (antisense eA*e[5mC]*eA*e[5mC]*e[5mC]*dA*dG*dG*dT*dT*dG*d[5mC]*dT*d[5mC]*d[5mC]*e[5mC]*eT*eG*e[5mC]*eG) [compound 547488]
% inhibition [3]: 71% | % inhibition [4]: 72%

547076 (eT*e[5mC]*eT*e[5mC]*eA*dA*dG*d[5mC]*dA*dG*d[5mC]*d[5mC]*dT*dA*dT*eT*eG*eT*eG*eT; antisense) [compound 547076]
% inhibition (HepaRG cells, 5,000 nM antisense oligonucleotide, 5-10-5 gapmers, Table 17): 14%

546461 (eA*eT*eG*eT*eT*dT*dA*dT*dT*dG*dT*dA*dG*d[5mC]*d[5mC]*eA*eT*eA*e[5mC]*eA; antisense) [compound 546461]
% inhibition [5]: 53%

Reference: patent US11840686B2, “Modulation of prekallikrein (PKK) expression” (Ionis Pharmaceuticals, Inc., priority 2013, dated 2023)
